Patent publication US20260256751A1, “COMBINATION OF BETA-2-ADRENERGIC RECEPTOR AGONISTS AND GLP-1 RECEPTOR AGONISTS FOR USE IN TREATING HYPERGLYCAEMIA” (ATROGI AB, priority 2023, published 2026)

Experiments:
[1] = test system: differentiated L6-myotubes; assay: Glucose uptake screen (Biological example 1 of WO 2019/053427); assay type: cell-based; settings: compound at 10 μM, activity relative to isoproterenol at 10 μM; for Emax at 10 µM: read-out: Biological example 1 of WO 2019/053427 (GU)
Procedure, shortened: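 Uptake was read out as ^3H-2-deoxyglucose (50 nM, 10 min) radioactivity in NaOH lysates. Beforehand, overnight-starved, differentiated L6 myotubes received compound at 1×10^−5 M with ICI-118551 present for 1 h 40 min, followed by fresh agonist for a further 20 min in glucose-free medium.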

[2] = test system: differentiated L6-myotubes; assay: cAMP production relative to isoprenaline (Biological example 2 of WO 2019/053427); assay type: cell-based; settings: compound at 10 μM, activity relative to isoproterenol at 10 μM; for Emax at 10 µM: 0.25 h
Procedure, shortened: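 Values are cAMP levels relative to isoprenaline at equal concentration (final 1×10^−5 M for both). Stimulation lasted 15 min in differentiated L6 myotubes, using HBSS buffer (pH 7.4) containing 1 mM IBMX, 5 mM HEPES and 1% BSA.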

Compound	Biological example 1 of WO 2019/053427 (GU) [1]	Biological example of WO 2019/053427 (cAMP) [2]	Emax at 10 µM [1] [%]	Emax at 10 µM [2] [%]
CCC[C@@H]1CC[C@H]([C@H](O)c2cncc(F)c2)N1 [Compound 161]	+ (between 50 and 25%)	− (less than 25%)	–	–
CC1(C)CCC[C@H]([C@H](O)c2ccccc2Cl)N1 [Compound 162, (R)-[(R)-6,6-dimethyl-2-piperidyl](o-chlorophenyl)methanol]	–	–	25 to 50	< 25
CC1(C)CCC[C@H]([C@@H](O)c2ccccc2Cl)N1 [Compound 163, (S)-[(R)-6,6-dimethyl-2-piperidyl](o-chlorophenyl)methanol]	–	–	> 75	< 25
CC1(C)CCC[C@H]([C@@H](O)c2cccc(Cl)c2)N1 [Compound 164, (S)-[(R)-6,6-dimethyl-2-piperidyl](m-chlorophenyl)methanol]	–	–	50 to 75	< 25
CC1(C)CCC[C@H]([C@H](O)c2cccc(Cl)c2)N1 [Compound 165, (R)-[(R)-6,6-dimethyl-2-piperidyl](m-chlorophenyl)methanol]	–	–	25 to 50	< 25
CC1(C)CC[C@H]([C@@H](O)c2cncc(O)c2)N1 [Compound 166, 5-{(S)-[(R)-5,5-dimethyl-2-pyrrolidinyl]hydroxymeth-yl}-3-pyridinol]	–	–	25 to 50	< 25
CC1(C)CC[C@H]([C@H](O)c2cncc(O)c2)N1 [Compound 167, 5-{(R)-[(R)-5,5-dimethyl-2-pyrrolidinyl]hydroxymeth-yl}-3-pyridinol]	–	–	50 to 75	< 25
O[C@H](c1cccc(F)c1)[C@H]1CCC2(CCCC2)N1 [Compound 168]	–	–	50 to 75	25 to 50
O[C@@H](c1cccc(F)c1)[C@H]1CCC2(CCCC2)N1 [Compound 169, (S)-{(R)-1-aza-2-spiro[4.4]nonyl}(m-fluorophenyl)methanol]	–	–	< 25	< 25
O[C@H](c1cccc(F)c1)[C@H]1CCC2(CC2)N1 [Compound 170, (R)-{(R)-4-aza-5-spiro[2.4]heptyl}(m-fluorophenyl)methanol]	–	–	50 to 75	< 25
O[C@@H](c1cccc(F)c1)[C@H]1CCC2(CC2)N1 [Compound 171, (S)-{(R)-4-aza-5-spiro[2.4]heptyl}(m-fluorophenyl)methanol]	–	–	25 to 50	< 25
CC1(C)CC[C@H]([C@@H](O)c2ccc(F)cc2)N1 [Compound 172, (S)-[(R)-5,5-dimethyl-2-pyrrolidinyl](p-fluorophenyl)methanol]	–	–	< 25	< 25
CC1(C)CC[C@H]([C@H](O)c2ccc(F)cc2)N1 [Compound 173, (R)-[(R)-5,5-dimethyl-2-pyrrolidinyl](p-fluorophenyl)methanol]	–	–	50 to 75	< 25
CC1(C)CC[C@H]([C@@H](O)c2ccccc2F)N1 [Compound 174, (S)-[(R)-5,5-dimethyl-2-pyrrolidinyl](o-fluorophenyl)methanol]	–	–	< 25	< 25
CC1(C)CC[C@H]([C@H](O)c2ccccc2F)N1 [Compound 175, (R)-[(R)-5,5-dimethyl-2-pyrrolidinyl](o-fluorophenyl)methanol]	–	–	> 75	25 to 50
CC1(C)CCC[C@H]([C@@H](O)c2ccccc2F)N1 [Compound 176, (S)-[(R)-6,6-dimethyl-2-piperidyl](o-fluorophenyl)methanol]	–	–	> 75	25 to 50
CC1(C)CCC[C@H]([C@H](O)c2ccccc2F)N1 [Compound 177, (R)-[(R)-6,6-dimethyl-2-piperidyl](o-fluorophenyl)methanol]	–	–	50 to 75	< 25
CC12CCC([C@@H](O)c3cccc(F)c3)(CC1)N2 [Compound 178, (S)-(m-fluorophenyl)(4-methyl-7-azabicyclo[2.2.1]hept-1-yl)methanol]	–	–	25 to 50	< 25
CC12CCC([C@H](O)c3cccc(F)c3)(CC1)N2 [Compound 179, (R)-(m-fluoropehnyl)(4-methyl-7-azabicyclo[2.2.1]hept-1-yl)methanol]	–	–	50 to 75	< 25
CC12CCC([C@@H](O)c3ccccc3F)(CC1)N2 [Compound 180, (S)-(o-fluorophenyl)(4-methyl-7-azabicyclo[2.2.1]hept-1-yl)methanol]	–	–	> 75	< 25
CC12CCC([C@H](O)c3ccccc3F)(CC1)N2 [Compound 181, (R)-(o-fluorophenyl)(4-methyl-7-azabicyclo[2.2.1]hept-1-yl)methanol]	–	–	> 75	< 25

Compound	Biological example 1 of WO 2019/053427 (GU) [1]	Biological example of WO 2019/053427 (cAMP) [2]	Emax at 10 µM [1] [%]	Emax at 10 µM [2] [%]
CCCC12CCC([C@@H](O)c3cccc(F)c3)(CC1)N2 [Compound 182, (S)-(m-fluorophenyl)(- propyl-7-azabicyclo[2.2.1]hept-1-yl)methanol]	–	–	< 25	< 25
CCCC12CCC([C@H](O)c3cccc(F)c3)(CC1)N2 [Compound 183, (R)-(m-fluorophenyl)(4-propyl-7-azabicyclo[2.2.1]hept-1-yl)methanol]	–	–	50 to 75	25 to 50
CC12CCC([C@@H](O)c3cncc(F)c3)(CC1)N2 [Compound 184, (S)-(5-fluoro-3-pyridyl)(4-methyl-7-azabicyclo[2.2.1]hept-1-yl)methanol]	–	–	50 to 75	< 25
CC12CCC([C@H](O)c3cncc(F)c3)(CC1)N2 [Compound 185, (R)-(5-fluoro-3-pyridyl)(4-methyl-7-azabicyclo[2.2.1]hept-1-yl)methanol]	–	–	> 75	< 25
CC12CC(C1)[C@H]([C@H](O)c1cccc(F)c1)N2 [Compound 186, (R)-{(R)-1-methyl-2-azabicyclo[2.1.1]hex-3-yl}(m-fluorophenyl)methanol]	–	–	> 75	50 to 75
CC12CC(C1)[C@H]([C@@H](O)c1cccc(F)c1)N2 [Compound 187, (S)-{(R)-1-methyl-2-azabicyclo[2.1.1]hex-3-yl}(m-fluorophenyl)methanol]	–	–	25 to 50	< 25
CC12CC(C1)[C@@H]([C@H](O)c1cccc(F)c1)N2 [Compound 188, (R)-{(S)-1-methyl-2-azabicyclo[2.1.1]hex-3-yl}(m-fluorophenyl)methanol]	–	–	< 25	< 25
CC12CC(C1)[C@@H]([C@@H](O)c1cccc(F)c1)N2 [Compound 189, (S)-{(S)-1-methyl-2-azabicyclo[2.1.1]hex-3-yl}(m-fluorophenyl)methanol]	–	–	50 to 75	< 25
CC1(C)CCC[C@@H]([C@H](O)c2cccc(F)c2)N1 [Compound 190, (R)-[(S)-6,6-dimethyl-2-piperidyl](m-fluorophenyl)methanol]	–	–	> 75	< 25
CC1(C)CCC[C@@H]([C@@H](O)c2cccc(F)c2)N1 [Compound 191, (S)-[(S)-6,6-dimethyl-2-piperidyl](m-fluorophenyl)methanol]	–	–	25 to 50	< 25
CC1(C)CCC[C@@H]([C@@H](O)c2ccccc2F)N1 [Compound 192, (S)-[(S)-6,6-dimethyl-2-piperidyl](o-fluorophenyl)methanol]	–	–	25 to 50	< 25
CC1(C)CCC[C@@H]([C@H](O)c2ccccc2F)N1 [Compound 193, (R)-[(S)-6,6-dimethyl-2-piperidyl](o-fluorophenyl)methanol]	–	–	> 75	25 to 50
CC12CCC([C@@H](O)c3ccccc3Cl)(CC1)N2 [Compound 194, (S)-(o-chlorophenyl)(4-methyl-7-azabicyclo[2.2.1]hept-1-yl)methanol]	–	–	> 75	< 25
CC12CCC([C@H](O)c3ccccc3Cl)(CC1)N2 [Compound 195, (R)-(o-chlorophenyl)(4-methyl-7-azabicyclo[2.2.1]hept-1-yl)methanol]	–	–	> 75	< 25
CC12CCC([C@@H](O)c3cccc(Cl)c3)(CC1)N2 [Compound 196, (S)-(m-chlorophenyl)(4-methyl-7-azabicyclo[2.2.1]hept-1-yl)methanol]	–	–	25 to 50	< 25
CC12CCC([C@H](O)c3cccc(Cl)c3)(CC1)N2 [Compound 197, (R)-(m-chlorophenyl)(4-methyl-7-azabicyclo[2.2.1]hept-1-yl)methanol]	–	–	> 75	< 25
CC1(C)C[C@H]([C@H](O)c2cccc(F)c2)N1 [Compound 198, (R)-[(R)-4,4-dimethyl-2-azetidinyl](m-fluorophenyl)methanol]	–	–	> 75	25 to 50
CC1(C)C[C@@H]([C@@H](O)c2cccc(F)c2)N1 [Compound 199, (S)-[(S)-4,4-dimethyl-2-azetidinyl](m-fluorophenyl)methanol]	–	–	25 to 50	< 25
CC1(C)C[C@@H]([C@H](O)c2cccc(F)c2)N1 [Compound 200, (R)-[(S)-4,4-dimethyl-2-azetidinyl](m-fluorophenyl)methanol]	–	–	< 25	< 25
CC1(C)C[C@H]([C@@H](O)c2cccc(F)c2)N1 [Compound 201, (S)-[(R)-4,4-dimethyl-2-azetidinyl](m-fluorophenyl)methanol]	–	–	< 25	< 25
